Measurements taken from patent US20160310505A1, “PROSTAMIDES FOR ENHANCEMENT OF LEPTIN PRODUCTION” (Allergan, Inc., priority 2013, published 2016).
“Also recorded” adds a separate entry of the source.

Assays:
human pre-adipocytes = test: Leptin production in human pre-adipocytes; type: cell-based; settings: 1 μM, 8 days, vehicle DMSO
Protocol: Vehicle is DMSO, bimatoprost treatment at 1 μM. Stimulation of leptin over 8-days of bimatoprost treatment; In FIG. 1, bimatoprost was applied topically once per day for 6 months to rats. […] FIG. 2 describes the systemic exposure (topically applied) of bimatoprost by measuring blood levels of the compound after treatment. […] The in vivo action of bimatoprost is likely a dual mechanism to inhibit food intake and suppress replenishment of fat cells during normal turnover. […] Blood was drawn every 2 weeks and the serum was analyzed for leptin levels by luminex assay. […] A cafeteria diet is a high sugar and fat diet with typical “junk food”: […]

Leptin = test: Serum leptin levels by luminex assay in male rats on a cafeteria diet; type: in vivo
Protocol: In FIG. 1, bimatoprost was applied topically once per day for 6 months to rats. […] FIG. 2 describes the systemic exposure (topically applied) of bimatoprost by measuring blood levels of the compound after treatment. […] The in vivo action of bimatoprost is likely a dual mechanism to inhibit food intake and suppress replenishment of fat cells during normal turnover. […] Blood was drawn every 2 weeks and the serum was analyzed for leptin levels by luminex assay. […] A cafeteria diet is a high sugar and fat diet with typical “junk food”: […]

[1] = Cafeteria diet induced fatty liver in rats, liver histology; type: in vivo; settings: cafeteria diet 10 weeks
Description: Rats were fed the cafeteria diet for 10 weeks and administered bimatoprost daily. At the end of 10 weeks, livers were resected and examined by histology. […] This has important consequences in the potential treatment of non-alcoholic fatty liver disease (NAFLD).

[2] = Once a day topical application to rats for six months (subcutaneous fat, body weight); type: in vivo; settings: for subcutaneous fat: topical once a day, six months, ~10% body surface coverage; for body weight (FIG. 2): topical treatment
Description: Bimatoprost (AGN 192024) is a synthetic prostamide which has been used in intraocular pressure lowering therapeutics such as LUMIGAN® 0.03, LUMIGAN® 0.01 and GANFORT®. […] In FIG. 1, bimatoprost was applied topically once per day for 6 months to rats. […] FIG. 2 describes the systemic exposure (topically applied) of bimatoprost by measuring blood levels of the compound after treatment. […] The in vivo action of bimatoprost is likely a dual mechanism to inhibit food intake and suppress replenishment of fat cells during normal turnover. […] Blood was drawn every 2 weeks and the serum was analyzed for leptin levels by luminex assay. […] A cafeteria diet is a high sugar and fat diet with typical “junk food”: […]

[3] = Patient use examples (transdermal patch or topical gel); type: in vivo, human
Description: A person who is morbidly obese applies a bimatoprost transdermal skin patch on their arm, which uniformly releases a 5% w/w bimatoprost formulation over a thirty day period. […] The patient loses 6 pounds more than they would have otherwise lost without using the bimatoprost transdermal skin patch. A person applies a 3% w/w bimatoprost gel to their skin once a day. […] A person with elevated blood pressure has been determined by doctors to have prediabetes. In addition to being on a low fat, low sugar diet, the patient uses a transdermal bimatoprost patch which releases a 3% w/w bimatoprost formulation through the dermis and into the blood stream. […] A person is diagnosed with non-alcoholic fatty liver. The patient applies a transdermal bimatoprost patch which releases a 2% w/w bimatoprost formulation. […] A healthy person in an effort to lose weight is on a low fat diet. In order to suppress their appetite, the person applies a bimatoprost transdermal patch which continually releases 1% w/w bimatoprost for 30 days.

pre-adipocyte = test: Pre-adipocyte differentiation; type: cell-based
[4] = Example 1: transdermal skin patch, 5% w/w, thirty days
[5] = Example 3: prediabetes patient, transdermal patch, 3% w/w
[6] = Example 5: transdermal patch, 1% w/w, 30 days

## CCNC(=O)CCC/C=C\C[C@@H]1[C@@H](/C=C/[C@@H](O)CCc2ccccc2)[C@H](O)C[C@@H]1O [bimatoprost, Bimatoprost]
Human pre-adipocytes
  leptin production (FIG. 3): increases Leptin production; also recorded: increase in leptin production
Leptin; male rats on cafeteria diet, 0.3% bimatoprost in BSHG formulation topical daily, p<0.01, 2-way ANOVA
  serum leptin levels: elevated levels of Leptin
Leptin; rats on a cafeteria diet, topical daily
  leptin levels (FIG. 4): elevated leptin levels
[1]; 0.3% bimatoprost formulation daily
  liver lipidosis: reduced lipidosis as compared to the control
[1]; 1% bimatoprost formulation daily
  liver lipidosis: reduced lipidosis as compared to the control
[1]; topical daily
  cafeteria diet induced fatty liver changes (FIG. 5): dose-dependently decreases cafeteria diet induced fatty liver changes; also recorded: inhibited cafeteria diet induced fatty liver disease
[2]; 3% w/v bimatoprost vs vehicle
  subcutaneous fat at sites distal to the application site (FIG. 1): subcutaneous fat reduction at sites distal to the application site
[2]
  subcutaneous fat: substantial local subcutaneous fat reduction, as well as reduction at adjunct and distal sites
  body weight (FIG. 2): reduction in body weight
[2]; listed as Bimatoprost
  subcutaneous fat: subcutaneous fat loss at sites distant from the application site
  body weight (FIG. 2): reduction in weight over time
[3]; Example 1: morbidly obese person, transdermal skin patch, 5% w/w, thirty days
  leptin levels: leptin levels increase
[3]; [4]
  additional weight lost versus no patch: 6 pounds
  appetite: suppressed appetite
[3]; Example 2: 3% w/w gel on skin once a day, after several days
  leptin levels: elevated leptin levels
[3]; Example 2: 3% w/w gel once a day
  appetite: suppresses appetite
[3]; Example 2: 3% w/w gel once a day, sixty day period
  body weight: maintains their weight
[3]; [5]
  appetite: reduction in appetite
  blood leptin levels: immediate increase in blood leptin levels
  body weight: weight loss
[3]; Example 4: non-alcoholic fatty liver patient, transdermal patch, 2% w/w
  lipidosis in the liver: reduction in lipidosis in the liver
[3]; Example 5: healthy female on low fat diet, transdermal patch, 1% w/w, 30 days
  leptin levels: leptin levels rise
[3]; [6]
  appetite: suppression of their appetite
  body weight: greater weight loss
pre-adipocyte
  differentiation of pre-adipocytes: inhibit differentiation
